This passage reports Activity results from ChEMBL document CHEMBL3244149, “New synthetic routes to tilorone dihydrochloride and some of its analogues” (J Med Chem, 1978).

Molecules are shown by their SMILES. Activity calls are given as the source filed them. No cut-off for these calls is given here.

In data set [1] the test system is Mus musculus. Nature of the data set: Induction of interferon production in CD-1 mouse serum at 100 mg/kg, ip after 18 hrs. The format is functional, organism-based. The arrangement: dose 100 mg/kg.
Data set [2] concerns Mus musculus. The data set can be described thus: Toxicity in CD-1 mouse at 100 mg/kg, ip. The format is organism-based. The following applies: in vivo. On the set-up: dose 100 mg/kg, route intraperitoneal.
In data set [3] the test system is Mus musculus. The data set can be described thus: Induction of interferon production in CD-1 mouse serum at 10 to 30 mg/kg, ip after 18 hrs. Type of data set: functional, organism-based.
Data set [4] has as its system Mus musculus. Nature of the data set: Toxicity in CD-1 mouse at 300 mg/kg, ip. The following applies: in vivo. Type of data set: organism-based. On the set-up: dose 300 mg/kg, route intraperitoneal.

For the molecule `CCN(CC)CCOc1ccc2c(c1)C(=O)c1cc(OCCN(CC)CC)ccc1-2`, the result in data set [1] was Active.

Turning to `CCN(CC)CCOc1cccc(C(=O)c2cccc(OCCN(CC)CC)c2)c1`, the Activity entry in data set [2] and in data set [4] was “Toxic” each time. Further, the result in data set [3] was inactive.

As to `CCN(CC)CCOc1ccc2c(c1)S(=O)(=O)c1cc(OCCN(CC)CC)ccc1-2`, the Activity result in data set [2] was “Non-toxic”; in data set [4] it was “Toxic”. The outcome in data set [1] was inactive.
